Laboratory results from patent US20130035515A1, “LIGNOCELLULOSIC HYDROLYSATES AS FEEDSTOCKS FOR ISOBUTANOL FERMENTATION” (priority 2011, published 2013).

Legend:
PNY1504 [1] = experiment: Fermentation of glucose to isobutanol by PNY1504 in defined medium with or without antimycin A; assay type: cell-based, Saccharomyces cerevisiae; settings: glucose 35 g/L
Method: (§1) Strain PNY1504 was pre-cultured in the defined medium SC-GE as described above, except that the medium was buffered to pH 6. Production cultures used the same SC medium, except either glucose or xylose was added to a final concentration of 35 g/L, and penicillin G (Sigma P3032) was added at 25 μg/ml.
(§2) Xylulose can be taken up by yeast and metabolized via the pentose phosphate pathway. […] Souto-Maior A M, et al., J Biotechnol. 143:119-23 (2009). Thus, in order to increase flux towards fermentative products, cultures were treated with the respiratory inhibitor antimycin A (1 μM; Sigma A8674).

PNY1504 [2] = experiment: Fermentation of xylose to isobutanol by PNY1504 in defined medium with xylose isomerase, with or without antimycin A; assay type: cell-based, Saccharomyces cerevisiae
Method: as §1
Unless it is genetically engineered to do so, S. cerevisiae is unable to ferment xylose, but it is able to ferment xylulose. In order to test whether xylose is available for fermentation to isobutanol, it was converted to xylulose in situ by xylose isomerase (10 g/L; Sigma G4166) essentially as described in Lastick S. M., et al., Applied Microbiology and Biotechnology 30:574-579 (1989), Wang P. Y., et al., Biotechnology Letters 2:273-278 (1980) and Chandrakant P & Bisaria V S, Appl Microbiol Biotechnol 53:301-309 (2000).
as §2

[3] = antimycin A-treated culture (1 μM)

antimycin A
Time in which glucose (hexose) was consumed (PNY1504 [1]; antimycin A 1 μM): ≤ 24 h
Isobutanol titer (PNY1504 [1]; [3]): ~3.3 g/L
Isobutanol yield (PNY1504 [1]; [3]): approximately 0.08 g·g^−1
Effect on biomass accumulation (PNY1504 [2]; antimycin A 1 μM): reduce biomass accumulation slightly
Effect on xylose consumption profile (PNY1504 [2]; antimycin A 1 μM): not significantly affected
Isobutanol production (PNY1504 [2]; antimycin A 1 μM, at 78 hours): 0.5 g/L
Isobutanol yield (PNY1504 [2]; in the presence of antimycin A): 0.04 g/g
